Assays:
Format in all cases: binding
cyclic RGD peptide [1] = assay: Nanopore (approximately 12 nm) junction device functionalized with cyclic RGD peptide
Method: Accordingly, in some embodiments, the background signal corresponds to the number of molecules adsorbed on the electrodes. This can be substantiated by collecting signals from a device small enough to allow only one integrin molecule to be trapped. In such a device, experiments were performed where the electrode edges were exposed by drilling a nanopore of approximately 12 nm diameter through the junction device. The electrodes were functionalized again with the cyclic RGD peptide. […] However, when 1 nM αVβ3 integrin is added a signal is generated (FIG. 11). […] This is because there is room for only one molecule at a time in the device, and this confirms that, in some embodiments, the background current arises from adsorption of many molecules.

cyclic RGD peptide [2] = assay: STM break-junction measurement, Pd probe and substrate functionalized with cyclic RGD peptide; conditions: for event frequency, of all retractions: 10 nM protein, Vt=0.2V
Method: A Pd wire probe, etched to a sharp point and insulated to within a few hundred nm of its apex was used in an Agilent PicoSPM together with a Pd-coated substrate as described elsewhere. […] Probes and substrates were functionalized with cyclic RGD peptide (inset FIG. 14B) as described in Methods. Measurements were carried out in 1 mM phosphate buffer (pH=7.4) with the potential of the substrate controlled at a voltage Vr with respect to an Ag/AgCl reference. […] Integrin itself is electrochemically-inert, but the Pd surface has a rich electrochemistry. Cyclic voltammetry of a Pd surface functionalized with cyclic RGD peptide is shown in FIG. 14B, where a prominent cathodic peak (“HA”) is associated with hydrogen adsorption. […] In order to avoid both this cathodic peak and the onset of Pd oxidation at positive potentials, both electrodes were kept at potentials between 0 and 0.5V vs Ag/AgCl. The STM gap was set to an initial current of 4 pA ([…] conductance at Vt=0.2V, corresponding to a distance, Z0, of about 2 nm) and the probe was then slowly (0.17 nm/s) retracted. The tunnel current decayed rapidly (˜0.2 nm decay length—inset in FIG. 14E) in buffer alone. […] Many current points for αvβ3, exceed 0.1 nA (i.e., conductances >0.5 nS) at distances Z0+ΔZ>3 nm (FIG. 15A). Clearly these currents cannot arise from a tunneling process with β˜0.87 Å^−1 for which G0·e^−βx yields values smaller than 10^−16 S.
Table 1 summarizes the frequency with which these large current pulses are observed in STM measurements, showing also the effect of increasing bias. Large current events are barely seen below 0.1V, their frequency rising with increasing bias above this threshold. The experiments were repeated without a reference electrode, finding essentially identical results over the range of 0.1 to 0.5V (Table 1) presumably because the large-area substrate used in the STM experiments serves to stabilize surface potential somewhat.
The fraction in parenthesis corresponds to events that overflowed the current limit of the amplifier (11 nA). 0.5V bias approaches the potential for surface oxide formation of the Pd, but no significant oxidation currents were observed.
Functionalizing STM probes and substrates: The STM probes were etched from a 0.25 mm Pd wire (California Fine Wires) by an AC electrochemical etching method, and then insulated with high-density polyethylene, leaving an open apex of a few tens of nanometers in diameter. Before use, the probes were tested in 1 mM phosphate buffer (pH=7.4) at 0.5 V bias to ensure that the leakage current was <1 pA. For functionalization, the probe was gently cleaned using ethanol and water, respectively, and then dried with nitrogen flow. The probe was immersed in a 0.5 mg/mL peptide solution for ˜20 h. After that, the probe was taken out, rinsed with water, dried with nitrogen gas, and used immediately. Palladium substrates were prepared by depositing a 100 nm palladium film onto a 10 nm titanium adhesion layer coated onto a 750 μm thick silicon wafer using an electron-beam evaporator (Lesker PVD 75). The substrate was annealed with a hydrogen flame immediately before being functionalized by the same method as that for probe. Fourier transform infrared (FTIR) spectroscopy was used to characterize the functionalization. Pd substrates were also treated by UV- Ozone cleaner and H2 gas reduction (to remove PdO).
STM Measurements: Break junction measurements were carried out with a PicoSPM scanning probe microscope (Agilent Technologies). The Teflon liquid cells were cleaned in Piranha solution and then sonicated in Milli-Q water three times (Note that: the Piranha is highly corrosive and must be handled with extreme care). The current set point was 4 pA. Different sample bias was applied to the substrate as required. For better surface charge control, an Ag/AgCl with a salt bridge (10 mM KCl) was connected to the substrate. […]

cyclic RGD peptide [3] = assay: STM experiment, gold probe functionalized with RGD peptide over bare gold substrate; conditions: 100 nM protein, starting gap 2.7 nm
Source text: Accordingly, in some embodiments, functionalizing just one of a pair of electrodes generates a unique electrical recognition signal for a corresponding molecule(s). To do this, a scanning tunneling microscope (STM) was used (see STM, FIG. 5A), where a gold probe 51 was functionalized with the RGD peptide 53 via the chemical interaction between the cysteine residue and the gold. The probe was positioned at a set point bias (V) and current (I) such that the apex of the probe was held approximately 2.7 nm above a bare gold substrate, 52. As the probe was pulled away an extra distance ΔZ from the surface, a decaying current could be observed during some of the experiments (e.g., feature 57 in FIG. 5B). However, in the absence of the αVβ3 integrin, no other features were observed, even if fairly high concentrations (e.g., 100 nM) of a protein such as BSA were added to the solution in the STM. Once 100 nM αVβ3 integrin 56 was added to the solution, a new feature appeared as a current peak away from the origin 58 in FIG. 5B.
In contrast to conventional tunneling signals, these signals peak when the probe is some distance away from the surface, signifying that the probe has captured a conductive particle.

[4] = Bias 0.1 V, Reference Ag/AgCl (0V)
[5] = Bias 0.2 V, Reference Ag/AgCl (0V)
[6] = Bias 0.5 V, Reference Ag/AgCl (0V)
[7] = Bias 0.5 V, Reference None (substrate floating)
[8] = many current points, at distances Z0+ΔZ>3 nm

Q: With “α4β1: homologous, weakly-binding integrin protein used as a control” as the substance, how does the “signal in nanopore device” value (cyclic RGD peptide [1]; 1 nM solution) read?
A: no signals are generated

Q: And the “event frequency, of all retractions” value (cyclic RGD peptide [2])?
A: 12%

Q: What about the “fraction of retractions that showed large current events” value (cyclic RGD peptide [2]; [4]) of the same substance?
A: 0.01

Q: What about the “fraction of retractions that showed large current events” value (cyclic RGD peptide [2]; Bias 0.1 V, Reference None) of the same substance?
A: 0

Q: And the “fraction of events that overflowed the current limit of the amplifier (11 nA)” value (cyclic RGD peptide [2]; [5])?
A: 0

Q: And the “fraction of retractions that showed large current events” value (cyclic RGD peptide [2]; [5])?
A: 0.15

Q: What about the “fraction of events that overflowed the current limit of the amplifier (11 nA)” value (cyclic RGD peptide [2]; Bias 0.2 V, Reference None) of the same substance?
A: 0

Q: What about the “fraction of retractions that showed large current events” value (cyclic RGD peptide [2]; Bias 0.2 V, Reference None) of the same substance?
A: 0.12

Q: What about the “fraction of events that overflowed the current limit of the amplifier (11 nA)” value (cyclic RGD peptide [2]; [6]) of the same substance?
A: 0.01

Q: What about the “fraction of retractions that showed large current events” value (cyclic RGD peptide [2]; [6]) of the same substance?
A: 0.3

Q: And the “fraction of events that overflowed the current limit of the amplifier (11 nA)” value (cyclic RGD peptide [2]; [7])?
A: 0

Q: What about the “fraction of retractions that showed large current events” value (cyclic RGD peptide [2]; [7]) of the same substance?
A: 0.24

Q: What does the source list for “αvβ3: ~200 kD αVβ3 extracelluar domain of human integrin, target protein bound by cyclic RGD peptide”?
A: fluctuating current component (cyclic RGD peptide [1]; 1 nM): about 0.2 nA; current peak features on probe withdrawal (cyclic RGD peptide [3]): many tens of picoamps; event frequency, of all retractions (cyclic RGD peptide [2]): 25%; fraction of events that overflowed the current limit of the amplifier (11 nA) (cyclic RGD peptide [2]; [4]): 0; fraction of retractions that showed large current events (cyclic RGD peptide [2]; [4]): 0.07; fraction of events that overflowed the current limit of the amplifier (11 nA) (cyclic RGD peptide [2]; Bias 0.1 V, Reference None): 0; fraction of retractions that showed large current events (cyclic RGD peptide [2]; Bias 0.1 V, Reference None): 0.06; fraction of events that overflowed the current limit of the amplifier (11 nA) (cyclic RGD peptide [2]; [5]): 0.01; fraction of retractions that showed large current events (cyclic RGD peptide [2]; [5]): 0.32; fraction of events that overflowed the current limit of the amplifier (11 nA) (cyclic RGD peptide [2]; Bias 0.2 V, Reference None): 0.03; fraction of retractions that showed large current events (cyclic RGD peptide [2]; Bias 0.2 V, Reference None): 0.26; fraction of events that overflowed the current limit of the amplifier (11 nA) (cyclic RGD peptide [2]; [6]): 0.2; fraction of retractions that showed large current events (cyclic RGD peptide [2]; [6]): 0.58; fraction of events that overflowed the current limit of the amplifier (11 nA) (cyclic RGD peptide [2]; [7]): 0.09; fraction of retractions that showed large current events (cyclic RGD peptide [2]; [7]): 0.56; conductance (cyclic RGD peptide [2]; [8]): > 0.5 nS; peak current (cyclic RGD peptide [2]; [8]): exceed 0.1 nA

From patent publication US10422787B2, “System and method for single molecule detection” (ARIZONA BOARD OF REGENTS on behalf of ARIZONA STATE …, priority 2015, dated 2019)
